According to patent publication US20130116287A1 (priority 2010, published 2013):
Values joined by “and” are separate entries in the source; they are usually repeats but may differ in a detail not shown here. Equal entries are not always repeated.

Experiments:
[1] = Measurement of logP values by HPLC on reversed phase columns (EEC directive 79/831 Annex V.A8); type: physicochemical; conditions: HPLC; for Log P [I1] main isomer / Log P [I2] minor isomer / Log P (two values printed, isomers not assigned): pH 2.7, 0.1% formic acid; for Log P (two values printed, isomers not assigned): two values without isomer tag; for Log P: pH 2.7, 0.1% formic acid in water / acetonitrile, single value
Phytophthora infestans = type: in vivo; conditions: 500 ppm of active ingredient; tomato, preventive; evaluated 7 days after inoculation; 100% = no disease

Compound | Log P [I1] main isomer [1] | Log P [I2] minor isomer [1] | efficacy (Phytophthora infestans) [%] | Log P (two values printed, isomers not assigned) [1] | Log P [1]
Cc1snnc1C(=NOCc1csc(NC(=O)C(F)(F)Oc2ccccc2)n1)c1ccccc1 (mixture of isomers) [Example 1] | 4.25 | 4.15 | 100 | – | –
Cc1snnc1C(=NOCc1csc(NC(=O)CSc2ccccc2)n1)c1ccccc1 (mixture of isomers) [Example 5] | 3.89 | 3.78 | 95 | – | –
Cc1snnc1C(=NOCc1cccc(NC(=O)COc2ccccc2)n1)c1ccccc1 (mixture of isomers) [Example 9] | 4.14 | 4.01 | 95 | – | –
CC(=O)OCC(=O)Nc1nc(CON=C(c2ccccc2)c2nnsc2C)cs1 (mixture of isomers) [Example 11] | 2.78 | 2.68 | – | – | –
CC(=O)OCC(=O)Nc1cccc(CON=C(c2ccccc2)c2nnsc2C)n1 (mixture of isomers) [Example 12] | 2.93 | 2.82 | 70 | – | –
Cc1snnc1C(=NOCc1cccc(NC(=O)COCc2ccccc2)n1)c1ccccc1 (mixture of isomers) [Example 29] | 4.34 | – | 93 | – | –
Cc1snnc1C(=NOCc1csc(NC(=O)COc2ccccc2Cl)n1)c1ccccc1 (mixture of isomers) [Example 31] | 4.19 | 4.06 | 95 | – | –
Cc1snnc1C(=NOCc1cccc(NC(=O)COc2ccccc2Cl)n1)c1ccccc1 (mixture of isomers) [Example 32] | 4.61 | 4.49 | 93 | – | –
Cc1snnc1C(=NOCc1csc(NC(=O)COc2ccc(Cl)cc2)n1)c1ccccc1 (mixture of isomers) [Example 33] | – | – | 100 | 4.09 | –
Cc1snnc1C(=NOCc1cccc(NC(=O)COc2ccc(Cl)cc2)n1)c1ccccc1 (mixture of isomers) [Example 35] | 4.51 | – | 95 | – | –
Cc1snnc1C(=NOCc1csc(NC(=O)COc2cccc(Cl)c2)n1)c1ccccc1 (mixture of isomers) [Example 41] | – | – | 100 | 4.24 and 4.11 | –
Cc1snnc1C(=NOCc1cccc(NC(=O)COc2cccc(Cl)c2)n1)c1ccccc1 (mixture of isomers) [Example 43] | 4.53 | 4.41 | – | – | –
COc1ccccc1OCC(=O)Nc1cccc(CON=C(c2ccccc2)c2nnsc2C)n1 (mixture of isomers) [Example 58] | 4.24 | 4.11 | 95 | – | –
CC(=O)OC(C)(C)C(=O)Nc1nc(CON=C(c2ccccc2)c2nnsc2C)cs1 (mixture of isomers) [Example 100] | 3.35 | 3.25 | 95 | – | –
CC(=O)OC(C)(C)C(=O)Nc1cccc(CON=C(c2ccccc2)c2nnsc2C)n1 (mixture of isomers) [Example 101] | 3.48 | 3.35 | 95 | – | –
Cc1snnc1C(=NOCc1cccc(NC(=O)COCCC(C)C)n1)c1ccccc1 [Example 4] | – | – | 93 | – | –
Cc1snnc1C(=NOCc1cccc(NC(=O)COc2ccccc2)n1)c1ccccc1 [Example 10] | – | – | 98 | – | 4.11
C#CCOC(C)C(=O)Nc1nc(CON=C(c2ccccc2)c2nnsc2C)cs1 (stereo not shown) [Example 13] | – | – | 100 | – | 3.29
C#CCOC(C)C(=O)Nc1cccc(CON=C(c2ccccc2)c2nnsc2C)n1 (stereo not shown) [Example 14] | – | – | 100 | – | 3.58
Cc1snnc1C(=NOCc1cccc(NC(=O)C(C)Oc2ccccc2)n1)c1ccccc1 (stereo not shown) [Example 16] | – | – | 100 | – | 4.41
Cc1snnc1C(=NOCc1csc(NC(=O)COCC2CC2)n1)c1ccccc1 [Example 17] | – | – | 97 | – | 3.53
Cc1snnc1C(=NOCc1cccc(NC(=O)COCC2CC2)n1)c1ccccc1 [Example 18] | – | – | 100 | – | 3.92

Compound | Log P [I1] main isomer [1] | Log P [I2] minor isomer [1] | efficacy (Phytophthora infestans) [%] | Log P (two values printed, isomers not assigned) [1] | Log P [1]
C=CCCOC(C)C(=O)Nc1nc(CON=C(c2ccccc2)c2nnsc2C)cs1 (stereo not shown) [Example 19] | – | – | 98 | – | 3.99
C=CCCOC(C)C(=O)Nc1cccc(CON=C(c2ccccc2)c2nnsc2C)n1 (stereo not shown) [Example 20] | – | – | 95 | – | 4.36
CCCCOCC(=O)Nc1nc(CON=C(c2ccccc2)c2nnsc2C)cs1 [Example 21] | – | – | 93 | – | 3.99
CCCCOCC(=O)Nc1cccc(CON=C(c2ccccc2)c2nnsc2C)n1 [Example 22] | – | – | 95 | – | 4.41
Cc1snnc1C(=NOCc1cccc(NC(=O)COC2CCCC2)n1)c1ccccc1 [Example 24] | – | – | 95 | – | 4.51
C=CCOC(C)C(=O)Nc1cccc(CON=C(c2ccccc2)c2nnsc2C)n1 (stereo not shown) [Example 26] | – | – | 95 | – | 3.94
Cc1snnc1C(=NOCc1cccc(NC(=O)COCc2ccccc2)n1)c1ccccc1 [Example 30] | – | – | 95 | – | 4.29
Cc1snnc1C(=NOCc1csc(NC(=O)COc2ccc(Cl)cc2)n1)c1ccccc1 [Example 34] | – | – | 100 | – | 4.19
Cc1snnc1C(=NOCc1cccc(NC(=O)COc2ccc(Cl)cc2)n1)c1ccccc1 [Example 36] | – | – | 100 | – | 4.49
C=CCCOCC(=O)Nc1nc(CON=C(c2ccccc2)c2nnsc2C)cs1 [Example 37] | – | – | 98 | – | 3.68
C=CCCOCC(=O)Nc1cccc(CON=C(c2ccccc2)c2nnsc2C)n1 [Example 38] | – | – | 100 | – | 3.99
Cc1snnc1C(=NOCc1cccc(NC(=O)C(C)OCC2CC2)n1)c1ccccc1 (stereo not shown) [Example 40] | – | – | 97 | – | –
Cc1snnc1C(=NOCc1csc(NC(=O)COc2cccc(Cl)c2)n1)c1ccccc1 [Example 42] | – | – | 100 | – | 4.19
Cc1snnc1C(=NOCc1csc(NC(=O)COc2ccc(I)cc2)n1)c1ccccc1 [Example 45] | – | – | 100 | – | 4.44
Cc1snnc1C(=NOCc1cccc(NC(=O)COc2ccc(I)cc2)n1)c1ccccc1 [Example 46] | – | – | 100 | – | –
C#CCOCC(=O)Nc1nc(CON=C(c2ccccc2)c2nnsc2C)cs1 [Example 47] | – | – | 95 | – | 3.04
Cc1snnc1C(=NOCc1csc(NC(=O)CSCCc2ccccc2)n1)c1ccccc1 [Example 51] | – | – | – | – | 4.24
Cc1snnc1C(=NOCc1cccc(NC(=O)CSCCC(C)C)n1)c1ccccc1 [Example 68] | – | – | 95 | – | –
Cc1snnc1C(=NOCc1cccc(NC(=O)C(C)Oc2ccc(F)cc2)n1)c1ccccc1 (stereo not shown) [Example 96] | – | – | 97 | – | –
CCCCOC(C)C(=O)Nc1cccc(CON=C(c2ccccc2)c2nnsc2C)n1 (stereo not shown) [Example 97] | – | – | 97 | – | –
Cc1snnc1C(=NOCc1csc(NC(=O)C(C)OCC2CCC2)n1)c1ccccc1 (stereo not shown) [Example 110] | – | – | – | – | 4.49
Cc1snnc1C(=NOCc1cccc(NC(=O)C(C)OCC2CCC2)n1)c1ccccc1 (stereo not shown) [Example 111] | – | – | – | – | 4.93
